Data reported in patent publication EP2722048B1, “Iron bisglycinate chelate for use in treating anaemia” (Laboratori Baldacci S.p.A., priority 2012, dated 2014).
“And” between values parts separate entries of the source, which are not always exact repeats. Identical values can stand only once.

What was measured:
[1] = system: patients who had to undergo surgery and who suffered from slight sideropenic anaemia; settings: t=0, before treatment, individual patients, 'Average' = mean
Method: An experimental study was conducted on patients who had to undergo surgery and who suffered from slight sideropenic anaemia.
The aim of the treatment with iron salts was to restore and/or increase the haemoglobin level before surgery in such a manner as to minimise morbidity and/or mortality after surgery.
5 patients were treated with 2 effervescent tablets (prepared as in example 1) per day of iron bisglycinate chelate for 30 days, equal to 28 mg of iron ion per day and 5 patients were treated with one tablet per day of iron sulphate equal to 105 mg of iron ion.
Heavy bleeding surgery took place 10 days after the start of treatment with the iron derivative, i.e. both with the iron bisglycinate chelate and with iron sulphate and the treatment with said iron derivative continued for the 20 days following surgery.

[2] = system: patients before the hip arthroplasty operation; test: Test 2: treatment for 10 days after taking 350 ml blood before hip arthroplasty, haematic parameters; type: in vivo; settings: administration of iron sulphate; data in the applicant's possession
[3] = compared with mineral salts, for example iron sulphate; cited from earlier work
[4] = system: reticulocytes of the anaemic patient; test: Test 3: cytofluorometric analysis of reticulocytes in blood samples; type: in vivo; settings: for RET_IMM: immature reticulocytes: limits 0.00-0.50; for RETH: reticulocytes with high RNA content, highly immature: limits 0.0-10.0; for RETM: reticulocytes with average RNA content, immature on average: limits 0.0-40.0; for IRF: Immature Reticulocyte Function: limits 0.000-999.000; for MRV: Mean Reticulocyte Volume: limits 0-9999; for CRC: Corrected Reticulocyte Count: limits 0.75-2.30; for MFI: Mean Fluorescence Intensity: limits 5.0-30.0; for RhC/C: reticulocyte haemoglobin content: limits 28.9-33.9; for RETL: reticulocytes without RNA, poorly immature (or mature): limits 65.0-97.0
Method: In order to be able to quantify the increase in reticulocytes, cytofluorometry analyses were conducted on samples of blood taken from the patient both before the treatment with iron bisglycinate chelate (Table 3) and after 20 days of treatment (Table 4).
The cytofluorometric analysis (fluorescence flow cytometry CFM) is conducted here as an assessment of the fluorescence obtained with the step of a laser beam of a sample of cells to be examined; in any case, further conventional techniques can be used for the purpose of the present invention.

[5] = system: patients before the hip arthroplasty operation; test: Test 2: treatment for 10 days after taking 350 ml blood before hip arthroplasty, haematic parameters; type: in vivo; settings: individual patients, 'Average' row = mean
Method: For about 10 days, before the hip arthroplasty operation, blood is usually taken from the patients (350 ml) so as to have available, if necessary, a quantity of blood that is sufficient for an autologous transfusion.
10 days after the blood is removed, the haematic parameters of the various patients are assessed, the intervention is performed and then the treatment with iron bisglycinate chelate continues for another 30 days after surgery.

[6] = different values of pH of the gastrointestinal tract; cited from earlier work
[7] = t=20, after 20 days of treatment

## O=S(=O)([O-])[O-].[Fe+2] [Iron sulphate, reference compound]
[1]
  Iron: 110 µg/100ml and 85 µg/100ml
[1]; bisglycinate 28 mg iron ion/day, sulphate 105 mg iron ion/day
  Haemoglobin: 12.5 g/100ml and 11.6 g/100ml
[2]
  average reduction of the haemoglobin after taking 350 ml: 1.5 g of Hb

## NCC(=O)[O-].NCC(=O)[O-].[Fe+2] [Iron bisglycinate chelate]
[3]
  bioavailability: greater bioavailabilty than mineral salts
[4]; after 20 days of treatment versus before the treatment
  increase in the percentage of immature reticulocytes (RET_IMM): 75%
[4]; t=0, before treatment
  RET_IMM: immature reticulocytes: 0.08%
  RETH: reticulocytes with high RNA content, highly immature: 1.8%
  RETM: reticulocytes with average RNA content, immature on average: 9.8%
  IRF: Immature Reticulocyte Function: 0.156
  MRV: Mean Reticulocyte Volume: 86 µm^3
  CRC: Corrected Reticulocyte Count: 1.56%
  MFI: Mean Fluorescence Intensity: 15.1%
  RhC/C: reticulocyte haemoglobin content: 28.1 pg
  RETL: reticulocytes without RNA, poorly immature (or mature): 88.6%
[4]; [7]
  RET_IMM: immature reticulocytes: 0.14%
  RETH: reticulocytes with high RNA content, highly immature: 15.4%
  RETM: reticulocytes with average RNA content, immature on average: 32.3%
  IRF: Immature Reticulocyte Function: 0.534
  MRV: Mean Reticulocyte Volume: 100 µm^3
  CRC: Corrected Reticulocyte Count: 1.87%
  MFI: Mean Fluorescence Intensity: 29.8%
  RhC/C: reticulocyte haemoglobin content: 29.4 pg
  RETL: reticulocytes without RNA, poorly immature (or mature): 52.3%
[5]; t=0, start of treatment after taking 350 ml blood
  Haemoglobin: 12.5 g/100ml and 13.2 g/100ml (2×) and 12.9 g/100ml (2×) and 13.3 g/100ml and 12.7 g/100ml
[5]; t=0
  % Reticulocytes: 1.1% (3×) and 0.6% and 2.1% and 1.4% and 0.8%
  Ferritin: 97 ng/mL and 132 ng/mL and 315 ng/mL and 146 ng/mL and 43 ng/mL and 53 ng/mL and 67 ng/mL
  Sideraemia: 76 µg/100ml and 67 µg/100ml and 58 µg/100ml and 112 µg/100ml and 75 µg/100ml and 87 µg/100ml
[5]; t=10days, 2 tablets a day
  % Reticulocytes: 1.5% and 0.9% and 16% and 23% and 1.2% and 25% and 1.7%
  Ferritin: 103 ng/mL and 72 ng/mL and 237 ng/mL and 95 ng/mL and 25 ng/mL and 34 ng/mL and 67 ng/mL
  Haemoglobin: 11.8 g/100ml (2×) and 12.7 g/100ml and 12.2 g/100ml and 12.8 g/100ml and 12.9 g/100ml and 12.1 g/100ml
  Sideraemia: 58 µg/100ml and 120 µg/100ml and 80 µg/100ml and 62 µg/100ml and 65 µg/100ml and 84 µg/100ml and 69 µg/100ml
[6]
  stability of the bond (hydrolysis): does not hydrolyse
